# Assay results as given in patent US12060387B2, “Polypeptide-based shuttle agents for improving the transduction efficiency of polypeptide cargos to the cytosol of target eukaryotic cells, uses thereof, methods and kits relating to same” (priority 2015, dated 2024).
# Where two headings read alike, the source gives them in different places. Where a SMILES comes first, the peptide text is derived from it. Bridges are numbered along the chain shown (N, C = ends). Roman numbers before positions name the chains, in order. Where no end group is shown, it is not given here.
# Experiments:
# [1] = Cell toxicity / % cell viability by flow cytometry (cells in total events v. untreated); format: cell-based, Human; conditions: human, HeLa cells; for viability at 1 min, 20 µM: FIG. 29I, shuttle 20 μM, 1 minute; for viability at 1 h, 3.5 µM: antibody 0.5 μM, shuttle 3.5 μM, read-out: Cell viability (%) (± St. Dev.; n = 3), FIG. 19B
# Text: (§1) The fluorescence of GFP was quantified using flow cytometry (Accuri C6, Becton, Dickinson and Company (BD)). Untreated cells were used to establish a baseline in order to quantify the increased fluorescence due to the internalization of the fluorescent protein in treated cells. The percentage of cells with a fluorescence signal above the maximum fluorescence of untreated cells, “mean %” or “Pos cells (%)”, is used to identify positive fluorescent cells. “Relative fluorescence intensity (FL1-A)” corresponds to the mean of all fluorescence intensities from each cell with a fluorescent signal after fluorescent protein delivery with the shuttle agent. Also, the events scanned by flow cytometry corresponding to cells (size and granularity) were analyzed. The cellular toxicity (% cell viability) was monitored comparing the percentage of cells in the total events scanned of treated cells comparatively to untreated cells.
# [2] = as above; format: cell-based, human; conditions: human, THP-1 cells
# Text: as §1
# HeLa cells = test: as above; format: cell-based, Human; conditions: HeLa; Protocol B; shuttle 50 μM; GFP-NLS 5 μM; 10 seconds
# Text: as §1
# [3] = Cell viability (%) (±St. Dev.; n = 3), HeLa, Protocol B, GFP-NLS 5 μM, read-out: Cell viability (%) (±St. Dev.; n = 3)
# [4] = Cell viability (%) (±St. Dev.; n = 3), FIG. 29A, HeLa, Protocol B, shuttle 50 μM, GFP-NLS 5 μM, 10 seconds, read-out: Cell viability (%) (±St. Dev.; n = 3), FIG. 29A
# [5] = Cell viability (%) (±St. Dev.; n = 3), FIG. 29F, read-out: Cell viability (%) (±St. Dev.; n = 3), FIG. 29F
molecule,measurement,setting,value
CC[C@H](C)[C@H](NC(=O)[C@H](CCCCN)NC(=O)[C@H](CCCCN)NC(=O)[C@H](Cc1ccccc1)NC(=O)[C@H](CC(C)C)NC(=O)[C@H](CCCCN)NC(=O)[C@H](Cc1c[nH]c2ccccc12)NC(=O)[C@H](CCCCN)NC(=O)[C@H](Cc1c[nH]cn1)NC(=O)[C@H](C)NC(=O)[C@H](Cc1c[nH]cn1)NC(=O)[C@H](Cc1c[nH]cn1)NC(=O)[C@H](C)NC(=O)[C@H](Cc1c[nH]cn1)NC(=O)[C@H](Cc1c[nH]cn1)NC(=O)[C@H](C)NC(=O)[C@@H](N)Cc1c[nH]cn1)C(=O)NCC(=O)N[C@@H](C)C(=O)N[C@H](C(=O)N[C@@H](CC(C)C)C(=O)N[C@@H](CCCCN)C(=O)N[C@H](C(=O)N[C@@H](CC(C)C)C(=O)N[C@H](C(=O)N[C@H](C(=O)NCC(=O)N[C@@H](Cc1ccc(O)cc1)C(=O)N[C@@H](C)C(=O)N[C@@H](CCCNC(=N)N)C(=O)N[C@@H](C)C(=O)N[C@@H](C)C(=O)N[C@@H](C)C(=O)N[C@@H](CCCNC(=N)N)C(=O)N[C@@H](CCC(N)=O)C(=O)N[C@@H](C)C(=O)N[C@@H](CCCNC(=N)N)C(=O)N[C@@H](C)C(=O)O)[C@@H](C)O)[C@@H](C)O)C(C)C)C(C)C [3HA-CM18-PTD4],"viability at 1 min, 20 µM",[1]; [3],43.6 ± 2.8%
"CC(C)C[C@H](NC(=O)[C@H](CC(C)C)NC(=O)[C@H](CCCCN)NC(=O)[C@H](CCCCN)NC(=O)[C@H](CC(C)C)NC(=O)[C@H](CC(C)C)NC(=O)[C@H](CCCCN)NC(=O)[C@H](CCCCN)NC(=O)[C@H](CC(C)C)NC(=O)[C@H](CC(C)C)NC(=O)[C@@H](N)CS)C(=O)N[C@@H](CCCCN)C(=O)N[C@@H](CCCCN)C(=O)N[C@@H](CS)C(=O)O [C(LLKK)3C, reference compound] (H-CLLKKLLKKLLKKC-OH)","viability at 10 s, 50 µM",[1],61.8 ± 0.1%
CC(C)C[C@H](NC(=O)[C@H](CC(C)C)NC(=O)[C@H](CCCCN)NC(=O)[C@H](CCCCN)NC(=O)[C@H](CC(C)C)NC(=O)[C@H](CC(C)C)NC(=O)[C@H](CCCCN)NC(=O)[C@H](CCCCN)NC(=O)[C@H](CC(C)C)NC(=O)[C@H](CC(C)C)NC(=O)[C@H](CS)NC(=O)[C@H](Cc1c[nH]cn1)NC(=O)[C@H](Cc1c[nH]cn1)NC(=O)[C@H](Cc1c[nH]cn1)NC(=O)[C@H](Cc1c[nH]cn1)NC(=O)[C@H](Cc1c[nH]cn1)NC(=O)[C@@H](N)Cc1c[nH]cn1)C(=O)N[C@@H](CCCCN)C(=O)N[C@@H](CCCCN)C(=O)N[C@@H](CS)C(=O)N[C@@H](Cc1ccc(O)cc1)C(=O)N[C@@H](C)C(=O)N[C@@H](CCCNC(=N)N)C(=O)N[C@@H](C)C(=O)N[C@@H](C)C(=O)N[C@@H](C)C(=O)N[C@@H](CCCNC(=N)N)C(=O)N[C@@H](CCC(N)=O)C(=O)N[C@@H](C)C(=O)N[C@@H](CCCNC(=N)N)C(=O)N[C@@H](C)C(=O)O [His-C(LLKK)3C-PTD4] (H-HHHHHHCLLKKLLKKLLKKCYARAAARQARA-OH),"viability at 10 s, 50 µM",[1],95 ± 2.7%
same,"viability at 1 min, 10 µM",[1],99.5 ± 2.7%
same,"viability at 2 min, 10 µM",[1],94.3 ± 3.2%
same,"viability at 5 min, 10 µM",[1],80.8 ± 4.4%
same,"viability at 15 s, 1 µM",[2],85.2 ± 2.8%
same,"viability at 0.5 min, 1 µM",[2],86 ± 2%
same,"viability at 1 min, 1 µM",[2],86.9 ± 3.8%
same,"viability at 2 min, 1 µM",[2],79.6 ± 2.8%
same,"viability at 24 h, 0.8 µM",[2],97.2 ± 2.2%
same,"viability at 72 h, 0.8 µM",[2],76.6 ± 3.4%
"N=C(N)NCCC[C@H](NC(=O)CNC(=O)[C@@H](N)Cc1ccc(O)cc1)C(=O)N[C@@H](CCCCN)C(=O)N[C@@H](CCCCN)C(=O)N[C@@H](CCCNC(=N)N)C(=O)N[C@@H](CCCNC(=N)N)C(=O)N[C@@H](CCC(N)=O)C(=O)N[C@@H](CCCNC(=N)N)C(=O)N[C@@H](CCCNC(=N)N)C(=O)N[C@@H](CCCNC(=N)N)C(=O)N[C@@H](CS)C(=O)O [TAT-Cys, reference compound]","viability at 10 s, 50 µM","[1]; HeLa, Protocol B, peptide 50 μM, GFP-NLS 5 μM, 10 seconds, read-out: Cell viability (%) (±St. Dev.; n = 3), FIG. 29D",94.6 ± 0.44%
CC[C@H](C)[C@H](NC(=O)[C@@H](NC(=O)[C@H](Cc1ccccc1)NC(=O)[C@@H](N)CCCCN)[C@@H](C)O)C(=O)N[C@H](C(=O)N[C@@H](Cc1ccccc1)C(=O)N1CCC[C@H]1C(=O)N[C@@H](Cc1c[nH]cn1)C(=O)N[C@@H](CC(N)=O)C(=O)N[C@@H](CCC(N)=O)C(=O)N[C@@H](CCCCN)C(=O)NCC(=O)N[C@@H](CC(N)=O)C(=O)N[C@@H](Cc1c[nH]c2ccccc12)C(=O)N[C@@H](CCCCN)C(=O)N[C@@H](CC(N)=O)C(=O)N[C@H](C(=O)N1CCC[C@H]1C(=O)N[C@@H](CO)C(=O)N[C@@H](CC(N)=O)C(=O)N[C@@H](Cc1ccc(O)cc1)C(=O)N[C@@H](Cc1c[nH]cn1)C(=O)N[C@@H](Cc1ccc(O)cc1)C(=O)N[C@@H](CS)C(=O)N1CCC[C@H]1C(=O)N[C@@H](Cc1ccc(O)cc1)C(=O)N[C@@H](C)C(=O)N[C@@H](CCCNC(=N)N)C(=O)N[C@@H](C)C(=O)N[C@@H](C)C(=O)N[C@@H](C)C(=O)N[C@@H](CCCNC(=N)N)C(=O)N[C@@H](CCC(N)=O)C(=O)N[C@@H](C)C(=O)N[C@@H](CCCNC(=N)N)C(=O)N[C@@H](C)C(=O)O)C(C)C)C(C)C [VSVG-PTD4],"viability at 10 s, 50 µM","[1]; HeLa, Protocol B, shuttle 50 μM, GFP-NLS 5 μM, 10 seconds, read-out: Cell viability (%) (±St. Dev.; n = 3), FIG. 29E",100%
GLFEALLELLESLWELLLEAYARAAARQARA [JST-PTD4],"viability at 10 s, 50 µM","[1]; Cell viability (%) (±St. Dev.; n = 3), FIG. 29E, read-out: Cell viability (%) (±St. Dev.; n = 3), FIG. 29E",98.9 ± 0.57%
HHHAHHHKWKLFKKIGAVLKVLTTGYARAAARQARA [HA-CM18-PTD4],"viability at 1 min, 20 µM",[1]; [3],68.3 ± 4.1%
HHHHHHHHHHHHKWKLFKKIGAVLKVLTTGYARAAARQARA [12His-CM18-PTD4],"viability at 1 min, 20 µM",[1]; [3],33.4 ± 4.3%
HHHHHHKKALLALALHHLAHLALHLALALKKAYARAAARQARA [His-LAH4-PTD4],"viability at 10 s, 50 µM","[1]; HeLa, Protocol B, shuttle 50 μM, GFP-NLS 5 μM, 10 seconds, read-out: Cell viability (%) (±St. Dev.; n = 3), FIG. 29A",98 ± 1.5%
HHHHHHKWKLFKKIGAVLKVLTTGGWTLNSAGYLLKINLKALAALAKKIL [His-CM18-Transportan (TPT)],"viability at 10 s, 50 µM",[1]; [4],41.3 ± 3.3%
same,"Cell viability (%) (±St. Dev.; n = 3), FIG. 29E",HeLa cells,41.3 ± 3.29%
HHHHHHKWKLFKKIGAVLKVLTTGRRRRRRRRR [His-CM18-9Arg],"viability at 10 s, 50 µM",[1]; [4],45.8 ± 5.4%
same,"Cell viability (%) (±St. Dev.; n = 3), FIG. 29E",HeLa cells,45.8 ± 3.53%
HHHHHHKWKLFKKIGAVLKVLTTGYARAAARQARAHHHHHH [His-CM18-PTD4-His],"viability at 1 min, 10 µM","[1]; Cell viability (%) (±St. Dev.; n = 3), FIG. 29G, HeLa, Protocol B, shuttle 10 μM, GFP-NLS 5 μM, incubation 1 min, read-out: Cell viability (%) (±St. Dev.; n = 3), FIG. 29G",68.1 ± 2.7%
same,"viability at 2 min, 10 µM","[1]; Cell viability (%) (±St. Dev.; n = 3), FIG. 29G, HeLa, Protocol B, shuttle 10 μM, GFP-NLS 5 μM, incubation 2 min, read-out: Cell viability (%) (±St. Dev.; n = 3), FIG. 29G",61.6 ± 3.2%
same,"viability at 5 min, 10 µM","[1]; Cell viability (%) (±St. Dev.; n = 3), FIG. 29G, HeLa, Protocol B, shuttle 10 μM, GFP-NLS 5 μM, incubation 5 min, read-out: Cell viability (%) (±St. Dev.; n = 3), FIG. 29G",41.2 ± 4.4%
same,"viability at 1 min, 20 µM",[1]; [3],78.6 ± 1.1%
"HHHHHHYARAAARQARA [His-PTD4, reference compound]","viability at 10 s, 50 µM",[1],96.5 ± 0.28%
HHHKWKLFKKIGAVLKVLTTGYARAAARQARA [3His-CM18-PTD4],"viability at 1 min, 20 µM",[1]; [3],39.2 ± 3.3%
I: KWKLFKKIGAVLKVLTTGRQIKIWFQNRRMKWKKC / II: KWKLFKKIGAVLKVLTTGRQIKIWFQNRRMKWKKC (disulfide I:35-II:35) [dCM18-Penetratin-Cys],"viability at 1 h, 3.5 µM",[1]; HeLa,74 ± 9%
"KWKLFKKIGAVLKVLTTG [CM18, reference compound]","viability at 10 s, 50 µM","[1]; Cell viability (%) (±St. Dev.; n = 3), FIG. 29D, HeLa, Protocol B, peptide 50 μM, GFP-NLS 5 μM, 10 seconds, read-out: Cell viability (%) (±St. Dev.; n = 3), FIG. 29D",95 ± 1.2%
KWKLFKKIGAVLKVLTTGHHHHHHYARAAARQARA [CM18-His-PTD4],"viability at 1 min, 20 µM",[1]; [3],57.7 ± 4.2%
KWKLFKKIGAVLKVLTTGRQIKIWFQNRRMKWKKC [CM18-Penetratin-Cys],"viability at 1 h, 3.5 µM",[1]; HeLa,73 ± 9.5%
LIRLWSHLIHIWFQNRRLKWKKKYARAAARQARA [EB1-PTD4],"viability at 10 s, 50 µM",[1],39 ± 5.6%
same,"viability at 1 min, 10 µM",[1],61.7 ± 2.7%
same,"viability at 2 min, 10 µM",[1],56.6 ± 3.2%
same,"viability at 5 min, 10 µM",[1],55.8 ± 4.4%
MHHHHHHKWKLFKKIGAVLKVLTTGYGRKKRRQRRRC [Met-His-CM18-TAT-Cys],"viability at 10 s, 50 µM","[1]; Cell viability (%) (±St. Dev.; n = 3), FIG. 29E, HeLa, Protocol B, shuttle 50 μM, GFP-NLS 5 μM, 10 seconds, read-out: Cell viability (%) (±St. Dev.; n = 3), FIG. 29E",41.4 ± 3.91%
RRLSYSRRRFWEAKLAKALAKALAKHLAKALAKALKACEA [SynB3-KALA],"viability at 10 s, 50 µM",[1]; [5],91.1 ± 0.82%
RRRRRRRRRWEAKLAKALAKALAKHLAKALAKALKACEA [9Arg-KALA],"viability at 10 s, 50 µM",[1]; [5],62.8 ± 5.11%
"WEAKLAKALAKALAKHLAKALAKALKACEA [KALA, reference compound]","viability at 10 s, 50 µM",[1],84 ± 0.7%
"YARAAARQARA [PTD4, reference compound]","viability at 10 s, 50 µM","[1]; Cell viability (%) (±St. Dev.; n = 3), FIG. 29D, read-out: Cell viability (%) (±St. Dev.; n = 3), FIG. 29D",94 ± 4.5%
